According to patent US20130224754A1, “METHOD FOR THE SELECTION OF COMPOUNDS USEFUL FOR THE TREATMENT OF PSYCHIATRIC AND NEURODEGENERATIVE DISEASES” (UNIVERSITA' DEGLI STUDI DI TRIESTE, priority 2010, published 2013):

What was measured:
[1] = system: pN1-exon6-Fluc-3′UTR long construct; assay: Inhibition of KCl-induced translation of the ex6-Fluc-3′UTRlong construct; type: cell-based, rat; settings: for prevention of KCl-induced increase in translation of pN1-exon6-Fluc-3′UTR long: 30 min pre-treatment prior 3 h 20 mM KCl, rapamycin 20 nM, U0126 50 μM, KN62 20 μM, GF 50 nM, Aurora A inhibitor 10 μM, PP2 20 μM
Source text: The present invention can be used not only to identify compounds able to increase BDNF translation, but also to screen for potential inhibitors of BDNF protein production. To this aim a series of vectors were constructed which recapitulate the physiological regulation of BDNF translation in that the firefly luciferase gene was flanked both by 5′UTR regions as well as 3′UTR. These constructs included:
Inhibitors of 5′UTR regulation are: rapamycin (rap)=mTOR inhibitor (Takei, Inamura et al. 2004); U0126=MEK inhibitor (Kanhema, Dagestad et al. 2006); GF=PKC inhibitor (Heikkila, Jalava et al. 1993).
Inhibitors of 3′UTR regulation: KN62=CaMKII inhibitor (Lu, Hidaka et al. 1996); AuA=Aurora A inhibitor (Soncini, Carpinelli et al. 2006) and PP2=Src tyrosine kinase inhibitor (Perkinton, Sihra et al. 1999).
Aurora kinase A inhibitor (PHA-680632) was a gift from Nerviano Medical Sciences S.r.l. (Milan, Italy); PP2 (1-tert-butyl-3-(4-chlorophenyl)-1H-pyrazolo[3-4]pyrimidin-4-amine), rapamycin was purchased from Ascent Scientific (Bristol, UK), Bisindolylmaleimide I (2-[1-(3-dimethylaminopropyl)-1H-indol-3-yl]-3-(1H-indol-3yl)-maleimide, GF 109203X, Gö 6850), KN62 (1-[N,O-bis-5-isoquinolinesulfonyl)-N-methyl-L-tyrosyl]-4-phenylpiperazine), U0126 (1,4-diamino-2,3-dicyano-1,4-bis(2-aminophenylthio)butadiene), and U0124 (1,4-Diamino-2,3-dicyano-1,4-bis(methylthio)butadiene) from Calbiochem (Damstadt, Germany).
Relative luciferase units (RLU) describe in absolute values for the Fluc/Rluc (F/R) ratio obtained from each condition—basal, 3 h of 20 mM KCl, 30 min of treatment—rapamycin 20 nM, U0126 50 μM, KN62 20 μM, GF 50 nM, Aurora A inhibitor 10 μM or PP2 20 μM, prior 3 h of depolarization. A value of 1.0 was assumed for the basal condition. The represented data (mean+standard error) corresponds to three independent experiments in quadruplicate ***, P<0.001; **, P<0.01; *, P<0.05, One Way Anova followed by a multiple comparison versus Fluc construct procedure with Holm-Sidak's method.

rat BDNF 5′UTR exon 4 = assay: Dual luciferase assay, pN1-exon4-Fluc in SH-SY5Y cells; type: cell-based; settings: undifferentiated SH-SY5Y; KCL 50 mM, BDNF 50 ng/ml, GLU 20 μM, NE 50 μM, 5-HT 50 μM
Procedure: (§3) Plasmids were transfected into SH-SY5Y cells using lipofectamine 2000 (Invitrogen) to obtain a transient transfection. The relative quantity of DNA to lipofectamine has been determined and the optimal ratio was found at 0.2 μg of DNA and 0.5 μl of lipofectamine for each well of a 96 multiwell plate. At the time of transfection SH-SY5Y cells were around 70-75% of confluency. According to the Promega protocol for luciferase activity measurements, each construct-containing Fluc was transfected together with the normalizing Rluc construct with a 10:1 ratio (0.2 μg Fluc containing vector together with 0.02 μg of pN1-Rluc vector). The DNA (0.2 μg) was mixed with 25 μl of native MEM medium and incubated for 5 minutes at room temperature. The two solutions were then mixed and incubated for 20 minutes at room temperature to allow the formation of DNA-containing micelles. Then, 50 μl of such solution were added in each well to cells and incubated for 24 h at 37° C. After 24 h transfection, the medium was removed and replaced with fresh culture medium.
(§4) To determine the effects of receptors activation on translation controlled by the different BDNF 5′UTR sequences, cells were treated for 3 hours with 50 mM KCl to induce generalized cell depolarization.
(§5) Luciferase assay was performed according to the manufacturer's instructions (Promega). At the time of luciferase assay, the growth medium was removed from the cultured cells and a sufficient volume of PBS 1× was applied to wash the surface of the culture vessel. Then, the PBS 1× solution was completely removed and the cells lysis was started by adding 20 μl of PLB (passive lysis buffer) into each well. After adding the PLB solution, the culture plate was placed on an orbital shaker with gentle shaking at room temperature for 15 minutes to cover uniformly the cell monolayer with PLB. After lysis, 100 μl of Luciferase Assay Reagent II (LARII) were dispensed in each well and Firefly luciferase activity was measured using the Glo Max Multi luminometer with two injectors (Promega Corporation).
(§6) After quantifying the Firefly luminescence, this reaction was quenched and simultaneously, the Renilla luciferase reaction was initiated by adding 100 μl Stop & Glo Reagent (Promega) to the same well. Then, Renilla luciferase activity was measured using the Glo Max Multi luminometer with two injectors (Promega Corporation).
(§7) One day prior transfection, undifferentiated neuro-blastoma SH-SY5Y cells were seeded into a 96-well white plate with clear bottom (PBI International) at a confluency of 50-60% and cultured overnight. Plasmids containing the different BDNF 5′UTR exons were then transiently transfected into SH-SY5Y cells using Lipofectamine™ 2000 (Invitrogen) at high cell density (70-75%), according to the manufacturer's protocol. […]

rat BDNF 5′UTR exon 2B = assay: Dual luciferase assay, pN1-exon2B-Fluc in SH-SY5Y cells; type: cell-based; settings: undifferentiated SH-SY5Y, 24 h after transfection; KCL 50 mM, BDNF 50 ng/ml, GLU 20 μM, NE 50 μM
Procedure: as §3, §4, §5, §6, §7

rat BDNF 5′UTR exon 2C = assay: Dual luciferase assay, pN1-exon2C-Fluc in SH-SY5Y cells; type: cell-based; settings: undifferentiated SH-SY5Y; GLU 20 μM, NMDA 30 μM, NE 50 μM
Procedure: as §3, §4
Luciferase assay was performed according to the manufacturer's instructions (Promega). At the time of luciferase assay, the growth medium was removed from the cultured cells and a sufficient volume of PBS 1× was applied to wash the surface of the culture vessel. […] After lysis, 100 μl of Luciferase Assay Reagent II (LARII) were dispensed in each well and Firefly luciferase activity was measured using the Glo Max Multi luminometer with two injectors (Promega Corporation).
(§8) After quantifying the Firefly luminescence, this reaction was quenched and simultaneously, the Renilla luciferase reaction was initiated by adding 100 μl Stop & Glo Reagent (Promega) to the same well. Then, Renilla luciferase activity was measured using the Glo Max Multi luminometer with two injectors (Promega Corporation). […]

rat BDNF 5′UTR exon 7 = assay: Dual luciferase assay, pN1-exon7-Fluc in SH-SY5Y cells; type: cell-based; settings: undifferentiated SH-SY5Y; NE 50 μM
Procedure: (§9) Plasmids were transfected into SH-SY5Y cells using lipofectamine 2000 (Invitrogen) to obtain a transient transfection. The relative quantity of DNA to lipofectamine has been determined and the optimal ratio was found at 0.2 μg of DNA and 0.5 μl of lipofectamine for each well of a 96 multiwell plate. At the time of transfection SH-SY5Y cells were around 70-75% of confluency. According to the Promega protocol for luciferase activity measurements, each construct-containing Fluc was transfected together with the normalizing Rluc construct with a 10:1 ratio (0.2 μg Fluc containing vector together with 0.02 μg of pN1-Rluc vector). The DNA (0.2 μg) was mixed with 25 μl of native MEM medium and incubated for 5 minutes at room temperature. […]
(§10) Luciferase assay was performed according to the manufacturer's instructions (Promega). […] After lysis, 100 μl of Luciferase Assay Reagent II (LARII) were dispensed in each well and Firefly luciferase activity was measured using the Glo Max Multi luminometer with two injectors (Promega Corporation).
as §8

[2] = system: SH-SY5Y human neuroblastoma cells; assay: MTT viability assay; type: cell-based; settings: 3 h; ACh 10 μM, NE 50 uM, DOPA 40 μM, BDNF and NT3 both 50 ng/ml
Procedure: Using a 96-well plate 100 μl of SHSY-5Y cells were distributed per well, maintaining them overnight at 37° C. in a 5% CO2-humified incubator. […] After that, 20 μl of aseptically prepared 5 mg/mL MTT was added, adding it also to an additional quadruplicate of wells without cells, as an internal control. The cells were again incubated at 37° C. this time for 2 h, allowing the formation of formazan crystals by the mitochondrial dehydrogenase of viable cells. Afterwards, the media was carefully removed, and the formazan crystals were solubilised by adding 200 μl of MTT solvent per well, a solution that contains acidified isopropanol (4 mM HCl and 0.1% Nondet P-40 in isopropanol). The crystals were further dissolved by gently pipetting the solution up and down being the resulting purple solution spectrophotometrically measured at 570 nm. An increased absorbance can therefore be directly correlated to the cell number, allowing one to determine the cellular viability after a specific treatment. Since the method is dependent on the physiological state of the cells, the assay was always performed after checking the cellular morphology prior treatment. Moreover, two controls were performed: (1) untreated cells, an internal control to verify the drug-dependent effect; and (2) KCl 200 mM treated cells, in which a cytotoxic concentration was used, thus allowing us to verify the assay fidelity.

rat BDNF 5′UTR exon 1 = assay: Dual luciferase assay, pN1-exon1-Fluc in SH-SY5Y cells; type: cell-based; settings: undifferentiated SH-SY5Y, 24 h after transfection; KCL 50 mM, BDNF 50 ng/ml, GLU 20 μM, NE 50 μM
Procedure: as §3, §4, §5, §6, §7

BDNF 3′UTR-short = assay: Luciferase assay, pN1-Fluc-3′short in SH-SY5Y cells; type: cell-based, rat; settings: transfected SHSY-5Y; GLU 20 μM
Procedure: (§1) Basal and drug-induced translation of a luciferase reporter gene driven by BDNF short and long 3′UTR or coding region (CDS) sequences were measured.
(§2) BDNF ([…]) was specifically employed for the stimulation of the 3′UTR long containing plasmid and NT3 ([…]) for 3′UTR short containing plasmid.

rat BDNF 5′UTR exon 8 = assay: Dual luciferase assay, pN1-exon8-Fluc in SH-SY5Y cells; type: cell-based; settings: undifferentiated SH-SY5Y; BDNF 50 ng/ml, GLU 20 μM, 5-HT 50 μM
Procedure: as §9, §10, §8

[3] = system: BDNF 5′UTR splice variants; assay: Dual luciferase assay, response of BDNF 5′UTR splice variants to agonists (collective statements); settings: undifferentiated SH-SY5Y; for translation of the other BDNF transcripts (other than exon2C): DHPG 50 μM, AMPA 30 μM, NMDA 30 μM
Procedure: as §3, §4, §5, §6, §7

rat BDNF 5′UTR exon 3 = assay: Dual luciferase assay, pN1-exon3-Fluc in SH-SY5Y cells; type: cell-based; settings: undifferentiated SH-SY5Y; KCL 50 mM
Procedure: as §9, §10, §8

BDNF 3′UTR-long = assay: Luciferase assay, pN1-Fluc-3′long in SH-SY5Y cells; type: cell-based, rat; settings: transfected SHSY-5Y; KCl 50 mM, GLU 20 μM, DHPG 50 μM, AMPA 30 μM, NMDA 30 μM, AcH 30 μM, NE 50 μM, DOPA 40 μM, 5-HT 50 μM, BDNF 50 ng/μl
Procedure: as §1, §2

## N#CC(=C(N)Sc1ccccc1N)C(C#N)=C(N)Sc1ccccc1N [U0126, 1,4-diamino-2,3-dicyano-1,4-bis(2-aminophenylthio)butadiene]
[1]
  prevention of KCl-induced increase in translation of pN1-exon6-Fluc-3′UTR long: completely prevents

## NC[C@H](O)c1ccc(O)c(O)c1 [Norepinephrine]
Rat BDNF 5′UTR exon 4
  translation of exon 4-containing transcripts (ratio F-luc/R-Luc): significantly increase
Rat BDNF 5′UTR exon 2B
  translation of exon 2B-containing transcripts (ratio F-luc/R-Luc): significantly increase
Rat BDNF 5′UTR exon 2C
  expression of exon 2C containing plasmid (ratio F-luc/R-Luc): increased
Rat BDNF 5′UTR exon 7
  exon7 reporter expression (ratio F-luc/R-Luc): increased
[2]
  cell survival (MTT viability), neurotrophic effect: small increase in cell survival
Rat BDNF 5′UTR exon 1
  translation of exon1-containing transcripts (ratio F-luc/R-Luc): significantly increase

## CN([C@@H](Cc1ccc(OS(=O)(=O)c2cccc3cnccc23)cc1)C(=O)N1CCN(c2ccccc2)CC1)S(=O)(=O)c1cccc2cnccc12 [KN62]
[1]
  prevention of KCl-induced increase in translation of pN1-exon6-Fluc-3′UTR long: completely prevents

## N[C@@H](CCC(=O)O)C(=O)O [Glutamate, Glutammate]
BDNF 3′UTR-short
  translation of 3′UTR-short-containing transcripts: striking increase
Rat BDNF 5′UTR exon 8
  response of exon 8-containing plasmid (ratio F-luc/R-Luc): responsive
Rat BDNF 5′UTR exon 4
  translation of exon 4-containing transcripts (ratio F-luc/R-Luc): significantly increase
Rat BDNF 5′UTR exon 2B
  translation of exon 2B-containing transcripts (ratio F-luc/R-Luc): significantly increase
Rat BDNF 5′UTR exon 2C
  expression of exon 2C containing plasmid (ratio F-luc/R-Luc): able to induce the expression
Rat BDNF 5′UTR exon 1
  translation of exon1-containing transcripts (ratio F-luc/R-Luc): significantly increase

## NCCc1ccc(O)c(O)c1 [Dopamine]
[2]
  cell survival (MTT viability), neurotrophic effect: small increase in cell survival

## N[C@H](C(=O)O)c1cc(O)cc(O)c1 [DHPG]
[3]
  translation of the other BDNF transcripts (other than exon2C): not stimulated

## CN[C@H](CC(=O)O)C(=O)O [NMDA]
[3]
  translation of the other BDNF transcripts (other than exon2C): not stimulated
Rat BDNF 5′UTR exon 2C
  expression of exon 2C containing plasmid (ratio F-luc/R-Luc): enhancement

## Cc1o[nH]c(=O)c1CC(N)C(=O)O (centres unmarked) [AMPA]
[3]
  translation of the other BDNF transcripts (other than exon2C): not stimulated

## NCCc1c[nH]c2ccc(O)cc12 [Serotonin]
[3]; 5-HT 50 μM
  translation of every BDNF exons-containing plasmid, with the exception of those containing exon 2A, 4 and 8: able to increase the translation

## CC(C)(C)n1nc(-c2ccc(Cl)cc2)c2c(N)ncnc21 [PP2, 1-tert-butyl-3-(4-chlorophenyl)-1H-pyrazolo[3-4]pyrimidin-4-amine]
[1]
  prevention of KCl-induced increase in translation of pN1-exon6-Fluc-3′UTR long: completely prevents

## [Cl-].[K+] [KCl]
Rat BDNF 5′UTR exon 4
  translation of exon 4-containing transcripts (ratio F-luc/R-Luc): significantly increase
Rat BDNF 5′UTR exon 2B
  translation of exon 2B-containing transcripts (ratio F-luc/R-Luc): significantly increase
Rat BDNF 5′UTR exon 3
  expression of exon 3-containing plasmid (ratio F-luc/R-Luc): induced
BDNF 3′UTR-long
  translation of 3′UTR-long-containing transcripts: slightly but not significant increase
[1]; end of 3 h depolarization with 20 mM KCl
  increase in translation of pN1-exon6-Fluc-3′UTR long (Fluc/Rluc ratio, basal = 1.0): three-fold increase
Rat BDNF 5′UTR exon 1
  translation of exon1-containing transcripts (ratio F-luc/R-Luc): significantly increase

## CCc1cccc(CC)c1NC(=O)N1Cc2n[nH]c(NC(=O)c3ccc(N4CCN(C)CC4)cc3)c2C1 [Aurora A inhibitor, PHA-680632]
[1]
  prevention of KCl-induced increase in translation of pN1-exon6-Fluc-3′UTR long: completely prevents

## CN(C)CCCn1cc(C2=C(c3c[nH]c4ccccc34)C(=O)NC2=O)c2ccccc21 [GF, 2-[1-(3-dimethylaminopropyl)-1H-indol-3-yl]-3-(1H-indol-3yl)-maleimide]
[1]
  prevention of KCl-induced increase in translation of pN1-exon6-Fluc-3′UTR long: not

B1: Neurotrophin-3 (protein, UniProt P20783 139-257, looked up)
Neurotrophin-3: YAEHKSHRGEYSVCDSESLWVTDKSSAIDIRGHQVTVLGEIKTGNSPVKQYFYETRCKEARPVKNGCRGIDDKHWNSQCKTSQTYVRALTSENNKLVGWRWIRIDTSCVCALSRKIGRT
notes: neurotrophin, used at 50 ng/ml
[2]
  cell survival (MTT viability), neurotrophic effect: small increase in cell survival

B2: Brain-derived neurotrophic factor (protein, UniProt P23560 19-247, looked up)
Neurotrophic factor BDNF …: APMKEANIRGQGGLAYPGVRTHGTLESVNGPKAGSRGLTSLADTFEHVIEELLDEDQKVRPNEENNKDADLYTSRVMLSSQVPLEPPLLFLLEEYKNYLDAANMSMRVRRHSDPARRGELSVCDSISEWVTAADKKTAVDMSGGTVTVLEKVPVSKGQLKQYFYETKCNPMGYTKEGCRGIDKRHWNSQCRTTQSYVRALTMDSKKRIGWRFIRIDTSCVCTLTIKRGR
notes: growth and trophic factor of the neurotrophin family, used as agonist at 50 ng/ml
Rat BDNF 5′UTR exon 8
  response of exon 8-containing plasmid (ratio F-luc/R-Luc): responsive
Rat BDNF 5′UTR exon 4
  translation of exon 4-containing transcripts (ratio F-luc/R-Luc): significantly increase
Rat BDNF 5′UTR exon 2B
  translation of exon 2B-containing transcripts (ratio F-luc/R-Luc): significantly increase
[2]
  cell survival (MTT viability), neurotrophic effect: small increase in cell survival
Rat BDNF 5′UTR exon 1
  translation of exon1-containing transcripts (ratio F-luc/R-Luc): significantly increase
